Key:
Assay type in all cases: functional
Pseudomonas aeruginosa [1] = assay: Antibacterial activity against Pseudomonas aeruginosa ATCC 27853
Escherichia coli [2] = assay: Antibacterial activity against Escherichia coli DC2, hyperpermeable strain
Pseudomonas aeruginosa [3] = assay: Antibacterial activity against Pseudomonas aeruginosa VR5
Staphylococcus aureus [4] = assay: Antibacterial activity against Staphylococcus aureus MR 0.13
Staphylococcus aureus [5] = assay: Antibacterial activity against Staphylococcus aureus ATCC 25923
Escherichia coli [6] = assay: Antibacterial activity against Escherichia coli ATCC 25922

SMILES | MIC (Pseudomonas aeruginosa [1]) | MIC (Escherichia coli [2]) | MIC (Pseudomonas aeruginosa [3]) | MIC (Staphylococcus aureus [4]) | MIC (Staphylococcus aureus [5]) | MIC (Escherichia coli [6])
C[C@@H](O)[C@H]1C(=O)N2C(C(=O)[O-])=C(CSC(=S)N(C)OCc3ccccc3)S[C@H]12.[Na+] | > 32 µg/mL | 2 µg/mL | 32 µg/mL | 0.12 µg/mL | 0.03 µg/mL | > 32 µg/mL
C[C@@H](O)[C@H]1C(=O)N2C(C(=O)[O-])=C(CSC(=S)N(C)c3ccccn3)S[C@H]12.[Na+] | > 32 µg/mL | 1 µg/mL | > 32 µg/mL | 0.5 µg/mL | 0.06 µg/mL | > 32 µg/mL
CC(=O)OCCN(CCOC(C)=O)C(=S)SCC1=C(C(=O)[O-])N2C(=O)[C@H]([C@@H](C)O)[C@H]2S1.[Na+] | > 32 µg/mL | 2 µg/mL | > 32 µg/mL | 0.5 µg/mL | 0.12 µg/mL | > 32 µg/mL
C[C@@H](O)[C@H]1C(=O)N2C(C(=O)[O-])=C(CSC(=S)N(C)c3ccccc3)S[C@H]12.[Na+] | > 32 µg/mL | 1 µg/mL | > 32 µg/mL | 0.25 µg/mL | 0.03 µg/mL | > 32 µg/mL
C[C@@H]([O-])[C@H]1C(=O)N2C(C(=O)[O-])=C(CSC(=S)N3CC[N+](C)(C)CC3)S[C@H]12.[Na+] | > 32 µg/mL | 2 µg/mL | 4 µg/mL | 0.03 µg/mL | 0.03 µg/mL | 4 µg/mL
C[C@@H](O)[C@H]1C(=O)N2C(C(=O)[O-])=C(CSC(=S)N3CCN(C)CC3)S[C@H]12.[Na+] | > 32 µg/mL | 0.5 µg/mL | 4 µg/mL | 0.06 µg/mL | 0.03 µg/mL | 4 µg/mL
C[C@@H](O)[C@H]1C(=O)N2C(C(=O)[O-])=C(CSC(=S)N(C)Cc3ccccc3)S[C@H]12.[Na+] | > 32 µg/mL | 1 µg/mL | 32 µg/mL | 0.5 µg/mL | 0.06 µg/mL | > 32 µg/mL
C[C@@H](O)[C@H]1C(=O)N2C(C(=O)[O-])=C(CSC(=S)N(CCO)CCO)S[C@H]12.[Na+] | > 32 µg/mL | 4 µg/mL | 2 µg/mL | 0.5 µg/mL | 0.25 µg/mL | 32 µg/mL
C[C@@H](O)[C@H]1C(=O)N2C(C(=O)[O-])=C(CSC(=S)N3CCOCC3)S[C@H]12.[Na+] | > 32 µg/mL | 0.5 µg/mL | 0.5 µg/mL | 0.06 µg/mL | 0.03 µg/mL | 32 µg/mL
C[C@@H](O)[C@H]1C(=O)N2C(C(=O)[O-])=C(CSC(=S)N(C)CC(N)=O)S[C@H]12.[Na+] | > 32 µg/mL | 0.5 µg/mL | 4 µg/mL | 0.03 µg/mL | 0.12 µg/mL | 8 µg/mL
C[C@@H](O)[C@H]1C(=O)N2C(C(=O)[O-])=C(CSC(=S)N3CCNCC3)S[C@H]12.[Na+] | > 32 µg/mL | 4 µg/mL | 4 µg/mL | 0.25 µg/mL | 0.12 µg/mL | 8 µg/mL
C[C@@H](O)[C@H]1C(=O)N2C(C(=O)[O-])=C(CSC(=S)N(C)C)S[C@H]12.[Na+] | > 32 µg/mL | 0.12 µg/mL | 1 µg/mL | 0.06 µg/mL | 0.03 µg/mL | 32 µg/mL

Second part, the molecule after the results:

MIC (Pseudomonas aeruginosa [1]) | MIC (Escherichia coli [2]) | MIC (Pseudomonas aeruginosa [3]) | MIC (Staphylococcus aureus [4]) | MIC (Staphylococcus aureus [5]) | MIC (Escherichia coli [6]) | SMILES
> 32 µg/mL | 2 µg/mL | > 32 µg/mL | 0.12 µg/mL | 0.06 µg/mL | > 32 µg/mL | C[C@@H](O)[C@H]1C(=O)N2C(C(=O)[O-])=C(CSC(=S)N(C)CCc3ccccn3)S[C@H]12.[Na+]
> 32 µg/mL | 0.5 µg/mL | – | 1 µg/mL | 0.25 µg/mL | > 32 µg/mL | C[C@@H](O)[C@H]1C(=O)N2C(C(=O)[O-])=C(CSC(=S)N3CCN(C(=O)c4ccc(O)c(O)c4)CC3)S[C@H]12.[Na+]
> 32 µg/mL | 0.5 µg/mL | > 32 µg/mL | 0.12 µg/mL | 0.03 µg/mL | > 32 µg/mL | C[C@@H](O)[C@H]1C(=O)N2C(C(=O)[O-])=C(CSC(=S)N3CCCC3)S[C@H]12.[Na+]
> 32 µg/mL | 4 µg/mL | 16 µg/mL | 0.12 µg/mL | 0.12 µg/mL | 16 µg/mL | CC(=O)N1CCN(C(=S)SCC2=C(C(=O)[O-])N3C(=O)[C@H]([C@@H](C)O)[C@H]3S2)CC1.[Na+]
32 µg/mL | – | 0.25 µg/mL | 0.12 µg/mL | 0.25 µg/mL | 8 µg/mL | CC1(C)S[C@@H]2[C@H](NC(=O)[C@H](N)c3ccccc3)C(=O)N2[C@H]1C(=O)O.CC1(C)[C@H](C(=O)O)N2C(=O)C[C@H]2S1(=O)=O

Source: ChEMBL document CHEMBL1150474, “Synthesis of new penem dithiocarbamates” (1993)
